From PubChem BioAssay AID330 (DTP/NCI, 2004)
Where “and” joins values, the source holds several entries; their conditions need not be identical. Identical values can stand only once. Toxic doses and inconclusive results are not listed.

Test system: P388 leukemia ip, CD2F1 mice, survival T/C
Assay: NCI In Vivo Anticancer Drug Screen. Data for tumor model P388 Leukemia (intraperitoneal) in CD2F1 (CDF1) mice
Conditions: endpoint: median survival time, higher = longer survival
Summary of the method: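 Mice carrying the transplanted tumor received test compound or vehicle. Survival was recorded in each group, and the value is the treated-group measurement divided by that of the vehicle-treated control group.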

[1] = dose: 100.0 mg/kg/injection, schedule: Q04DX002 (ip), vehicle: saline with Tween-80
[2] = dose: 200.0 mg/kg/injection, schedule: Q04DX002 (ip), vehicle: saline with Tween-80
[3] = dose: 400.0 mg/kg/injection, schedule: Q04DX002 (ip), vehicle: saline with Tween-80
[4] = dose: 100.0 mg/kg/injection, schedule: Q01DX001 (ip), vehicle: saline with Tween-80
[5] = dose: 100.0 mg/kg/injection, schedule: Q04DX003 (ip), vehicle: saline with Tween-80
[6] = dose: 200.0 mg/kg/injection, schedule: Q04DX003 (ip), vehicle: saline with Tween-80
[7] = dose: 50.0 mg/kg/injection, schedule: Q01DX009 (ip), vehicle: saline with Tween-80
[8] = dose: 100.0 mg/kg/injection, schedule: Q01DX009 (ip), vehicle: saline with Tween-80
[9] = dose: 200.0 mg/kg/injection, schedule: Q01DX009 (ip), vehicle: saline with Tween-80

`CNc1nc(OC)nc2c1cnn2C1CCCCO1` (stereo unspecified) was tested, and the T/C [1] was 97 % of control, the T/C [2] was 100 % of control and the T/C [3] was 94 % of control.

With `CS/C(Nc1ccccc1)=C1\CCCn2c1nc1ccccc1c2=O` the T/C (dose: 25.0 mg/kg/injection, schedule: Q01DX001 (ip), vehicle: saline with Tween-80) was 105 % of control, the T/C (dose: 50.0 mg/kg/injection, schedule: Q01DX001 (ip), vehicle: saline with Tween-80) was 99 % of control and the T/C [4] was 90 % of control and 91 % of control.

With `CCN(CCN1C(=O)C2CCCCC2C1=O)c1ccc(N=O)c(C)c1` (stereo unspecified) the T/C [5] was 106 % of control, the T/C [6] was 109 % of control and the T/C (dose: 400.0 mg/kg/injection, schedule: Q04DX003 (ip), vehicle: saline with Tween-80) was 112 % of control.

For `O=C1C=CC(=CC=C2C=CN(CCCCCCO)C=C2)C=C1`, the T/C (dose: 60.0 mg/kg/injection, schedule: Q01DX005 (ip), vehicle: saline with Tween-80) was 105 % of control, the T/C (dose: 120.0 mg/kg/injection, schedule: Q01DX005 (ip), vehicle: saline with Tween-80) was 116 % of control and the T/C (dose: 240.0 mg/kg/injection, schedule: Q01DX005 (ip), vehicle: saline with Tween-80) was 122 % of control.

With `O=NNc1ccc(S(=O)(=O)c2ccc(NN=O)cc2)cc1` the T/C (dose: 3.12 mg/kg/injection, schedule: Q01DX009 (ip), vehicle: water) was 91 % of control, the T/C (dose: 6.25 mg/kg/injection, schedule: Q01DX009 (ip), vehicle: water) was 110 % of control and the T/C (dose: 12.5 mg/kg/injection, schedule: Q01DX009 (ip), vehicle: water) was 119 % of control. The T/C (dose: 25.0 mg/kg/injection, schedule: Q01DX009 (ip), vehicle: water) was 116 % of control, the T/C (dose: 37.5 mg/kg/injection, schedule: Q01DX009 (ip), vehicle: water) was 122 % of control and the T/C (dose: 50.0 mg/kg/injection, schedule: Q01DX009 (ip), vehicle: water) was 119 % of control. The T/C (dose: 75.0 mg/kg/injection, schedule: Q01DX009 (ip), vehicle: water) was 113 % of control.

For `C=Cn1c([N+](=O)[O-])cnc1/C=C/c1ccc(C(=O)NC)cc1`, the T/C [1] was 100 % of control, the T/C [2] was 102 % of control and the T/C [3] was 95 % of control.

`BrCC[N+]12CC[N+](CCBr)(CC1)C2` (tested in a mixture with another compound) was tested, and the T/C (dose: 5.0 mg/kg/injection, schedule: Q04DX003 (ip), vehicle: water) was 107 % of control, the T/C (dose: 10.0 mg/kg/injection, schedule: Q04DX003 (ip), vehicle: water) was 114 % of control and the T/C (dose: 20.0 mg/kg/injection, schedule: Q04DX003 (ip), vehicle: distilled water + Tween-80) was 122 % of control. For the same compound, the T/C (dose: 20.0 mg/kg/injection, schedule: Q04DX003 (ip), vehicle: water) was 100 % of control, the T/C (dose: 37.5 mg/kg/injection, schedule: Q04DX003 (ip), vehicle: water) was 112 % of control and the T/C (dose: 40.0 mg/kg/injection, schedule: Q04DX003 (ip), vehicle: distilled water + Tween-80) was 107 % of control. The T/C (dose: 40.0 mg/kg/injection, schedule: Q04DX003 (ip), vehicle: water) was 104 % of control, the T/C (dose: 80.0 mg/kg/injection, schedule: Q04DX003 (ip), vehicle: distilled water + Tween-80) was 118 % of control and the T/C (dose: 80.0 mg/kg/injection, schedule: Q04DX003 (ip), vehicle: water) was 110 % of control. The T/C (dose: 160.0 mg/kg/injection, schedule: Q04DX003 (ip), vehicle: distilled water + Tween-80) was 116 % of control and the T/C (dose: 160.0 mg/kg/injection, schedule: Q04DX003 (ip), vehicle: water) was 112 % of control.

In the case of `CCCCCCCCCCCCCCCCCCOP(=O)(CC(=O)NCc1cc(C(C)(C)C)c(O)c(C(C)(C)C)c1)OCCCCCCCCCCCCCCCCCC`, the T/C (dose: 12.5 mg/kg/injection, schedule: Q04DX003 (ip), vehicle: saline with Tween-80) is reported as 96 % of control, the T/C (dose: 25.0 mg/kg/injection, schedule: Q04DX003 (ip), vehicle: saline with Tween-80) is reported as 101 % of control and the T/C (dose: 50.0 mg/kg/injection, schedule: Q04DX003 (ip), vehicle: saline with Tween-80) is reported as 92 % of control. The T/C [5] was 86 % of control and the T/C [6] was 100 % of control.

For `Cc1cccc(C2=Nc3ccccc3N3CC=CC=C23)c1`, the T/C [7] was 110 % of control, the T/C [8] was 97 % of control and the T/C [9] was 92 % of control.

In the case of `COc1cc(O)c2c(-c3cc(O)ccc3O)cc(=O)oc2c1`, the T/C (dose: 60.0 mg/kg/injection, schedule: Q01DX005 (ip), vehicle: Klucel (hydroxypropylcellulose) (HPC)) is reported as 94 % of control, the T/C (dose: 120.0 mg/kg/injection, schedule: Q01DX005 (ip), vehicle: Klucel (hydroxypropylcellulose) (HPC)) is reported as 88 % of control and the T/C (dose: 240.0 mg/kg/injection, schedule: Q01DX005 (ip), vehicle: Klucel (hydroxypropylcellulose) (HPC)) is reported as 96 % of control.

With `Cc1coc2c3c(ccc12)OC(C)(C)C=C3` the T/C [4] was 102 % of control and the T/C (dose: 200.0 mg/kg/injection, schedule: Q01DX001 (ip), vehicle: saline with Tween-80) was 104 % of control.

`CCCCCCC(=O)/C=C/c1ccc(OC(=O)c2ccc(C)cc2)cc1` was tested, and the T/C [7] was 95 % of control, the T/C [8] was 93 % of control and the T/C [9] was 93 % of control.

In the case of `C/C=C1/CN2C3C[C@@]45c6cc(OC)c(OC)cc6NC4(O3)C2CC1C5C(=O)OC` (stereo partly specified), the T/C (dose: 5.25 mg/kg/injection, schedule: Q01DX005 (ip), vehicle: Klucel (hydroxypropylcellulose) (HPC)) is reported as 102 % of control, the T/C (dose: 10.5 mg/kg/injection, schedule: Q01DX005 (ip), vehicle: Klucel (hydroxypropylcellulose) (HPC)) is reported as 102 % of control and the T/C (dose: 21.0 mg/kg/injection, schedule: Q01DX005 (ip), vehicle: Klucel (hydroxypropylcellulose) (HPC)) is reported as 98 % of control. The T/C (dose: 42.0 mg/kg/injection, schedule: Q01DX005 (ip), vehicle: Klucel (hydroxypropylcellulose) (HPC)) was 99 % of control.

With `CO[C@@]12[C@@H]3N[C@@H]3CN1C1=C(C(=O)C(NCC3CCCO3)=C(C)C1=O)[C@@H]2COC(N)=O` (stereo partly specified) the T/C (dose: 1.56 mg/kg/injection, schedule: Q01DX005 (ip), vehicle: distilled water + Tween-80) was 155 % of control, the T/C (dose: 3.12 mg/kg/injection, schedule: Q01DX005 (ip), vehicle: distilled water + Tween-80) was 194 % of control and the T/C (dose: 6.25 mg/kg/injection, schedule: Q01DX005 (ip), vehicle: distilled water + Tween-80) was 198 % of control and 241 % of control. The T/C (dose: 12.5 mg/kg/injection, schedule: Q01DX001 (ip), vehicle: distilled water + Tween-80) was 158 % of control, the T/C (dose: 12.5 mg/kg/injection, schedule: Q01DX005 (ip), vehicle: distilled water + Tween-80) was 223 % of control and 225 % of control and the T/C (dose: 25.0 mg/kg/injection, schedule: Q01DX001 (ip), vehicle: distilled water + Tween-80) was 165 % of control. The T/C (dose: 25.0 mg/kg/injection, schedule: Q01DX005 (ip), vehicle: distilled water + Tween-80) was 100 % of control and 207 % of control and the T/C (dose: 50.0 mg/kg/injection, schedule: Q01DX001 (ip), vehicle: distilled water + Tween-80) was 203 % of control.

In the case of `CCOC(=O)CC1=NN=C(N)SC1`, the T/C (dose: 12.5 mg/kg/injection, schedule: Q01DX009 (ip), vehicle: saline) is reported as 100 % of control, the T/C (dose: 25.0 mg/kg/injection, schedule: Q01DX009 (ip), vehicle: saline) is reported as 101 % of control and 103 % of control and the T/C (dose: 50.0 mg/kg/injection, schedule: Q01DX009 (ip), vehicle: saline) is reported as 101 % of control and 106 % of control. For the same compound, the T/C (dose: 100.0 mg/kg/injection, schedule: Q01DX009 (ip), vehicle: saline) was 93 % of control and 97 % of control and the T/C (dose: 200.0 mg/kg/injection, schedule: Q01DX009 (ip), vehicle: saline) was 87 % of control.

`O=[N+]([O-])c1ccc(S(=O)(=O)Cc2ccccc2)c2nonc12` was tested, and the T/C (dose: 3.12 mg/kg/injection, schedule: Q01DX009 (ip), vehicle: saline with Tween-80) was 99 % of control, the T/C (dose: 6.25 mg/kg/injection, schedule: Q01DX009 (ip), vehicle: saline with Tween-80) was 107 % of control and the T/C (dose: 12.5 mg/kg/injection, schedule: Q01DX009 (ip), vehicle: saline with Tween-80) was 100 % of control.

For `OC(CNc1ccccc1Cl)COc1ccc(Cl)cc1Cl` (stereo unspecified), the T/C [7] was 94 % of control, the T/C [8] was 95 % of control and the T/C [9] was 106 % of control.

`CN(CCCl)C(=O)c1ccc([N+](=O)[O-])cc1` was tested, and the T/C [7] was 105 % of control, the T/C [8] was 116 % of control and the T/C [9] was 101 % of control.

For `CCC1(C2OC(C3OC(O)(CO)C(C)CC3C)CC2C)CCC(C2(C)CCC3(CC(O)C(C)C(C(C)C(OC)C(C)C(=O)O)O3)O2)O1` (stereo unspecified), the T/C (dose: 3.13 mg/kg/injection, schedule: Q01DX005 (ip), vehicle: saline with Tween-80) was 110 % of control and 112 % of control, the T/C (dose: 6.25 mg/kg/injection, schedule: Q01DX005 (ip), vehicle: saline with Tween-80) was 108 % of control and 111 % of control and 118 % of control and the T/C (dose: 12.5 mg/kg/injection, schedule: Q01DX005 (ip), vehicle: saline with Tween-80) was 120 % of control.

With `O=C1CCC/C(c2ccccc2)=N\N=C/1c1ccccc1` the T/C (dose: 50.0 mg/kg/injection, schedule: Q01DX005 (ip), vehicle: Klucel (hydroxypropylcellulose) (HPC)) was 106 % of control, the T/C (dose: 100.0 mg/kg/injection, schedule: Q01DX005 (ip), vehicle: Klucel (hydroxypropylcellulose) (HPC)) was 106 % of control and the T/C (dose: 200.0 mg/kg/injection, schedule: Q01DX005 (ip), vehicle: Klucel (hydroxypropylcellulose) (HPC)) was 103 % of control.
